Values belong to the molecule of their own block, whether it stands above or below them.
Legend:
Format in all cases: physicochemical
[1] = Influencing factor stability study (open containers; light, high temperature, high humidity; 30 days)
[2] = Long-term/accelerated stability study (sealed in aluminum foil bags, 25° C./60% RH and 40° C./75% RH)
[3] = DVS (dynamic vapor sorption) hygroscopicity test
From the text: According to the description of hygroscopicity characteristics and the definitions of hygroscopic weight gains in “General Rule 9103, Guidelines for Hygroscopicity” in the Chinese Pharmacopoeia, Volume IV, 2015 Edition, • deliquescent: sufficient water is absorbed to form a liquid; • extremely hygroscopic: the hygroscopic weight gain is not less than 15%; • hygroscopic: the hygroscopic weight gain is less than 15% but not less than 2%; • slightly hygroscopic: the hygroscopic weight gain is less than 2% but not less than 0.2%; • nonhygroscopic or practically nonhygroscopic: the hygroscopic weight gain is less than 0.2%.
TGA refers to thermogravimetric analysis: The analysis was performed using a METTLER TOLEDO TGA 2 thermogravimetric analyzer, with a temperature ramp rate of 10° C./min, specific temperature ranges shown in corresponding patterns (mostly 30-350° C.), and a nitrogen purge speed of 50 mL/min. DVS refers to dynamic vapor sorption: The analysis was performed using SMS DVS Advantage; at 25° C., the humidity was changed as follows: 50%-95%-0%-95%-50%, in steps of 10% (5% for the last step) (specific humidity ranges are shown in corresponding patterns, and those listed here were used in most cases); the criterion was dm/dt being not greater than 0.002%.

[4] = open container, 40° C., 1 month
[5] = open container, 40° C., 14 days
[6] = open container, 60° C., 1 month
[7] = open container, 60° C., 14 days
[8] = open container, 75% RH, 1 month
[9] = open container, 75% RH, 14 days
[10] = open container, 92.5% RH, 1 month
[11] = open container, 92.5% RH, 7 days
[12] = open container, 92.5% RH, 14 days
[13] = open container, light exposure (4500 Lux), 1 month
[14] = open container, light exposure (4500 Lux), 7 days
[15] = open container, light exposure (4500 Lux), 14 days
[16] = 25° C.-60% RH, sealed aluminum foil bag, 1 month
[17] = 25° C.-60% RH, sealed aluminum foil bag, 2 months
[18] = 25° C.-60% RH, sealed aluminum foil bag, 3 months
[19] = 25° C.-60% RH, sealed aluminum foil bag, 6 months
[20] = 40° C.-75% RH, sealed aluminum foil bag, 1 month
[21] = 40° C.-75% RH, sealed aluminum foil bag, 2 months
[22] = 40° C.-75% RH, sealed aluminum foil bag, 3 months
[23] = 40° C.-75% RH, sealed aluminum foil bag, 6 months
[24] = accelerated experimental conditions, 70% RH
[25] = normal storage conditions, 25° C. and 60% RH

- Crystal form ([1]; 0 days): Crystal form a of sulfate
- Purity ([1]; 0 days): 99.7%
- Crystal form [1, 4]: No change
- Purity [1, 4]: 98.5%
- Crystal form ([1]; open container, 40° C., 7 days): No change
- Purity ([1]; open container, 40° C., 7 days): 99.4%
- Crystal form [1, 5]: No change
- Purity [1, 5]: 98.8%
- Crystal form [1, 6]: No change
- Purity [1, 6]: 97.9%
- Crystal form ([1]; open container, 60° C., 7 days): No change
- Purity ([1]; open container, 60° C., 7 days): 99.2%
- Crystal form [1, 7]: No change
- Purity [1, 7]: 98.7%
- Crystal form [1, 8]: No change
- Purity [1, 8]: 99.7%
- Crystal form ([1]; open container, 75% RH, 7 days): No change
- Purity ([1]; open container, 75% RH, 7 days): 99.7%
- Crystal form [1, 9]: No change
- Purity [1, 9]: 99.6%
- Crystal form [1, 10]: No change
- Purity [1, 10]: 99.7%
- Crystal form [1, 11]: No change
- Purity [1, 11]: 99.6%
- Crystal form [1, 12]: No change
- Purity [1, 12]: 99.7%
- Crystal form [1, 13]: No change
- Purity [1, 13]: 98.1%
- Crystal form [1, 14]: No change
- Purity [1, 14]: 99.2%
- Crystal form [1, 15]: No change
- Purity [1, 15]: 98.9%
- Purity (%) ([2]; 0 days (initial)): 99.7%
- Crystal form [2, 16]: No change
- Purity (%) [2, 16]: 99.7%
- Crystal form [2, 17]: No change
- Purity (%) [2, 17]: 99.7%
- Crystal form [2, 18]: No change
- Purity (%) [2, 18]: 99.8%
- Crystal form [2, 19]: No change
- Purity (%) [2, 19]: 99.7%
- Crystal form [2, 20]: No change
- Purity (%) [2, 20]: 99.6%
- Crystal form [2, 21]: No change
- Purity (%) [2, 21]: 99.7%
- Crystal form [2, 22]: No change
- Purity (%) [2, 22]: 99.6%
- Crystal form [2, 23]: No change
- Purity (%) [2, 23]: 99.6%
- long-term/accelerated stability (conclusion) ([2]; storage under long-term accelerated conditions for 6 months): good physical and chemical stability
- hygroscopic weight gain [3, 24]: about 1.9%
- crystal form re-identified after the DVS test [3]: did not change
- hygroscopic weight gain ([3]; extreme conditions, 90% RH): about 3.1%
- hygroscopic weight gain [3, 25]: about 1.6%
SMILES: O=S(=O)(O)O.[2H]C([2H])([2H])Oc1cc(C#N)ccc1[C@@H]1C(C(N)=O)=C(C)Nc2c(C)cnc(OCC)c21 [crystal form a of sulfate]

- Crystal form [1, 6]: No change
- Purity [1, 6]: 98.2%
- Crystal form ([1]; open container, 60° C., 7 days): No change
- Purity ([1]; open container, 60° C., 7 days): 99.2%
- Crystal form [1, 7]: No change
- Purity [1, 7]: 99.0%
- Crystal form [1, 8]: No change
- Purity [1, 8]: 99.6%
- Crystal form ([1]; open container, 75% RH, 7 days): No change
- Purity ([1]; open container, 75% RH, 7 days): 99.7%
- Crystal form [1, 9]: No change
- Purity [1, 9]: 99.6%
- Crystal form [1, 10]: No change
- Crystal form [1, 11]: No change
- Purity [1, 11]: 99.7%
- Crystal form [1, 12]: No change
- Crystal form [1, 14]: No change
- Crystal form [1, 15]: No change
- Purity (%) ([2]; 0 days (initial)): 99.7%
- Crystal form [2, 16]: No change
- Purity (%) [2, 16]: 99.8%
- Crystal form [2, 17]: No change
- Purity (%) [2, 17]: 99.7%
- Crystal form [2, 18]: No change
- Purity (%) [2, 18]: 99.7%
- Crystal form [2, 19]: No change
- Purity (%) [2, 19]: 99.7%
- Crystal form [2, 20]: No change
- Purity (%) [2, 20]: 99.6%
- Crystal form [2, 21]: No change
- Purity (%) [2, 21]: 99.4%
- Crystal form [2, 22]: No change
- Purity (%) [2, 22]: 97.9%
- Crystal form [2, 23]: No change
- Purity (%) [2, 23]: 97.9%
- long-term/accelerated stability (conclusion) ([2]; under long-term conditions): stable
- hygroscopic weight gain [3, 24]: about 13.2%
- crystal form re-identified after the DVS test [3]: did not change
- hygroscopic weight gain ([3]; extreme conditions, 90% RH): about 13.8%
- hygroscopic weight gain [3, 25]: about 12.8%
SMILES: Br.[2H]C([2H])([2H])Oc1cc(C#N)ccc1[C@@H]1C(C(N)=O)=C(C)Nc2c(C)cnc(OCC)c21 [crystal form I of hydrobromide]

From patent US20260265249A1, “PHARMACEUTICALLY ACCEPTABLE SALT AND CRYSTAL FORM OF 1,4-DIHYDRO-1,6-NAPHTHYRIDINE AMIDE COMPOUND AND PREPARATION METHOD THEREFOR” (JIANGSU HENGRUI PHARMACEUTICALS CO., LTD., priority 2023, published 2026)
